Measured values as given in ChEMBL document CHEMBL1201862, “PubChem BioAssay data set” (2004).
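96-well plates; 48 h exposure; 5 concentrations. Endpoints by linear interpolation between flanking doses. Not reached: highest tested concentration assigned. Here, GI50 denotes the concentration required for 50% inhibition of growth.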 Activity calls are given as the source filed them. Rule as the data show it: active = GI50 up to about 1.1 µM and inactive = higher.

What was measured:
Assay in all cases: growth of human tumour cells (NCI), 48 h
786-0 = test system: 786-0
A498 = test system: A498
CAKI-1 = test system: CAKI-1
CCRF-CEM = test system: CCRF-CEM
COLO 205 = test system: COLO 205
EKVX = test system: EKVX
HCC 2998 = test system: HCC 2998
HL-60 = test system: HL-60
HT-29 = test system: HT-29
K562 = test system: K562
Malme-3M = test system: Malme-3M
OVCAR-4 = test system: OVCAR-4
OVCAR-5 = test system: OVCAR-5
SF-268 = test system: SF-268
SK-MEL-2 = test system: SK-MEL-2
SNB-75 = test system: SNB-75
TK-10 = test system: TK-10
UACC-257 = test system: UACC-257
MCF7 = test system: MCF7
DU-145 = test system: DU-145

Row | Compound | GI50 (786-0) | GI50 (A498) | GI50 (CAKI-1) | GI50 (CCRF-CEM) | GI50 (COLO 205) | GI50 (EKVX) | GI50 (HCC 2998) | GI50 (HL-60) | GI50 (HT-29) | GI50 (K562) | GI50 (Malme-3M) | GI50 (OVCAR-4) | GI50 (OVCAR-5) | GI50 (SF-268) | GI50 (SK-MEL-2) | GI50 (SNB-75) | GI50 (TK-10) | GI50 (UACC-257) | GI50 (MCF7) | GI50 (DU-145)
1 | CN(C)C(=S)Nc1nnc(NC23CC4CC(CC(C4)C2)C3)s1.[O-][Cl+3]([O-])([O-])O | 16.6 µM (inactive) | 15 µM (inactive) | 20.1 µM (inactive) | 15 µM (inactive) | 19.8 µM (inactive) | 23 µM (inactive) | 18.9 µM (inactive) | 7.57 µM (inactive) | 5.81 µM (inactive) | 15.8 µM (inactive) | 17.3 µM (inactive) | 16.1 µM (inactive) | 10 µM (inactive) | 16.4 µM (inactive) | 18.5 µM (inactive) | 0.1 µM (active) | 40.5 µM (inactive) | 14.5 µM (inactive) | – | –
2 | CCOC(=O)C1(C)CCc2sc(N)c(C#N)c21 (centres undefined) | > 100 µM (inactive) | > 100 µM (inactive) | – | > 100 µM (inactive) | > 100 µM (inactive) | > 100 µM (inactive) | > 100 µM (inactive) | > 100 µM (inactive) | > 100 µM (inactive) | > 100 µM (inactive) | > 100 µM (inactive) | – | > 100 µM (inactive) | – | > 100 µM (inactive) | > 100 µM (inactive) | > 100 µM (inactive) | > 100 µM (inactive) | > 100 µM (inactive) | –
3 | CC1=C2C(=CC(C)(C)C2O)C(=O)C(C)(O)C12CC2 (centres undefined) | 0.00759 µM (active) | 0.0279 µM (active) | 0.00552 µM (active) | 0.00531 µM (active) | 0.0138 µM (active) | 0.0356 µM (active) | 0.00541 µM (active) | 0.00345 µM (active) | 0.0028 µM (active) | 0.00558 µM (active) | 0.012 µM (active) | 0.00513 µM (active) | 0.0128 µM (active) | 0.00658 µM (active) | 0.0121 µM (active) | 0.0123 µM (active) | 0.0216 µM (active) | 0.014 µM (active) | – | –
4 | O=c1[nH]c(=O)n(C2OC(COP(=O)(O)OP(=O)(O)OC3OC(CO)C(O)C(O)C3O)C(O)C2O)cc1F (centres undefined) | 0.0526 µM (active) | 0.239 µM (active) | 0.109 µM (active) | 0.0929 µM (active) | 0.0984 µM (active) | 1.12 µM (inactive) | 0.116 µM (active) | 0.065 µM (active) | 0.0582 µM (active) | 0.0302 µM (active) | 0.21 µM (active) | 1.26 µM (inactive) | 0.908 µM (active) | 0.0475 µM (active) | 0.486 µM (active) | 1.64 µM (inactive) | 1.67 µM (inactive) | 0.615 µM (active) | – | –
5 | COc1cc(COC(=O)N2CSCC2C(=O)O)c([N+](=O)[O-])cc1OC (centres undefined) | > 100 µM (inactive) | – | – | > 100 µM (inactive) | – | > 100 µM (inactive) | > 100 µM (inactive) | > 100 µM (inactive) | > 100 µM (inactive) | > 100 µM (inactive) | > 100 µM (inactive) | – | > 100 µM (inactive) | > 100 µM (inactive) | – | > 100 µM (inactive) | – | > 100 µM (inactive) | > 100 µM (inactive) | > 100 µM (inactive)
6 | CN(/N=C/c1ccccc1O)c1ccc2ccccc2n1 | 17.7 µM (inactive) | 20 µM (inactive) | 33.9 µM (inactive) | 12.9 µM (inactive) | 56.1 µM (inactive) | 19.8 µM (inactive) | – | 81.7 µM (inactive) | 29.8 µM (inactive) | 60.3 µM (inactive) | 21.6 µM (inactive) | 20.3 µM (inactive) | 41.2 µM (inactive) | 22.5 µM (inactive) | 35.6 µM (inactive) | – | 22.2 µM (inactive) | 52.8 µM (inactive) | 2.61 µM (inactive) | 20.1 µM (inactive)
7 | Cc1n[nH]c(=O)n1C1CC1 | > 100 µM (inactive) | – | > 100 µM (inactive) | > 100 µM (inactive) | > 100 µM (inactive) | > 100 µM (inactive) | > 100 µM (inactive) | > 100 µM (inactive) | > 100 µM (inactive) | > 100 µM (inactive) | 64.1 µM (inactive) | > 100 µM (inactive) | > 100 µM (inactive) | > 100 µM (inactive) | – | 42.7 µM (inactive) | – | > 100 µM (inactive) | > 100 µM (inactive) | > 100 µM (inactive)
8 | CCCCOC(=O)c1cc(C(=CCC[C@H]2CC[C@@]3(C)[C@@H](CC[C@@H]4[C@@H]3CC[C@]3(C)[C@@H](C(C)CCCC(C)C)CC[C@@H]43)C2)c2cc(Cl)c(O)c(C(=O)OCCCC)c2)cc(Cl)c1O (some centres undefined) | > 50 µM (inactive) | > 50 µM (inactive) | > 50 µM (inactive) | > 50 µM (inactive) | > 50 µM (inactive) | > 50 µM (inactive) | > 50 µM (inactive) | > 50 µM (inactive) | > 50 µM (inactive) | > 5 µM (inactive) | – | > 50 µM (inactive) | – | > 50 µM (inactive) | > 50 µM (inactive) | > 50 µM (inactive) | – | – | – | > 50 µM (inactive)
